Results as given in the supplement of paper PMC10307832.

How the values were obtained:
Assay in all cases: relative viability (nuclei count vs DMSO), 5 days (fraction); higher = more cells survive
201T = tested on: 201T
In short: (§1)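 The day after seeding in 1536-well plates, lung cancer cell lines were treated by pin tool with a single drug, or with a fixed anchor-drug dose together with five library-drug doses (not always all listed) in √10 steps. After 5 days, a combined fix-and-stain solution (final 0.05% Triton X-100, 1% formaldehyde, 1 ug/ml Hoechst) was added. Nuclei counted on 4× images gave relative viability as treated counts over vehicle counts, reported as the median of duplicate plates.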

HARA = tested on: HARA
In short: as §1

HCC-44 = tested on: HCC-44
In short: as §1

LK-2 = tested on: LK-2
In short: as §1

SK-MES-1 = tested on: SK-MES-1
In short: as §1

NCI-H520 = tested on: NCI-H520
In short: as §1

NCI-H1666 = tested on: NCI-H1666
In short: as §1

HCC-15 = tested on: HCC-15
In short: as §1

HCC-827 = tested on: HCC-827
In short: as §1

COR-L23 = tested on: COR-L23
In short: as §1

NCI-H1437 = tested on: NCI-H1437
In short: as §1

COR-L 105 = tested on: COR-L 105
In short: as §1

NCI-H838 = tested on: NCI-H838
In short: as §1

NCI-H1792 = tested on: NCI-H1792
In short: as §1

NCI-H441 = tested on: NCI-H441
In short: as §1

A-427 = tested on: A-427
In short: as §1

NCI-H596 = tested on: NCI-H596
In short: as §1

NCI-H23 = tested on: NCI-H23
In short: as §1

EKVX = tested on: EKVX
In short: as §1

NCI-H1975 = tested on: NCI-H1975
In short: as §1

Clc1ccc(Nc2nnc(Cc3ccncc3)c3ccccc23)cc1 [Vatalanib] + CC1(C)CCC(c2ccc(Cl)cc2)=C(CN2CCN(c3ccc(C(=O)NS(=O)(=O)c4ccc(N[C@H](CCN5CCOCC5)CSc5ccccc5)c(S(=O)(=O)C(F)(F)F)c4)cc3)CC2)C1 [Navitoclax] (partner 0.5 µM)
relative viability (201T; first compound 0.04 µM): 1.17 | relative viability (201T; first compound 0.1265 µM): 1.27 | relative viability (201T; first compound 0.4 µM): 1.25 | relative viability (201T; first compound 1.265 µM): 1.25 | relative viability (201T; first compound 4 µM): 1.21 | relative viability (HARA; first compound 0.04 µM): 1.08 | relative viability (HARA; first compound 0.1265 µM): 1.03 | relative viability (HARA; first compound 0.4 µM): 1.18 | relative viability (HARA; first compound 1.265 µM): 1.11 | relative viability (HARA; first compound 4 µM): 1.13 | relative viability (HCC-44; first compound 0.04 µM): 0.933 | relative viability (HCC-44; first compound 0.1265 µM): 0.916 | relative viability (HCC-44; first compound 0.4 µM): 0.93 | relative viability (HCC-44; first compound 1.265 µM): 0.915 | relative viability (HCC-44; first compound 4 µM): 0.919 | relative viability (LK-2; first compound 0.04 µM): 0.883 | relative viability (LK-2; first compound 0.1265 µM): 0.824 | relative viability (LK-2; first compound 1.265 µM): 0.955 | relative viability (LK-2; first compound 4 µM): 0.807 | relative viability (SK-MES-1; first compound 0.04 µM): 1.2 | relative viability (SK-MES-1; first compound 0.1265 µM): 1.21 | relative viability (SK-MES-1; first compound 0.4 µM): 1.28 | relative viability (SK-MES-1; first compound 1.265 µM): 1.01 | relative viability (SK-MES-1; first compound 4 µM): 1.15 | relative viability (NCI-H520; first compound 0.04 µM): 0.974 | relative viability (NCI-H520; first compound 0.1265 µM): 1.02 | relative viability (NCI-H520; first compound 0.4 µM): 1.1 | relative viability (NCI-H520; first compound 1.265 µM): 0.907 | relative viability (NCI-H520; first compound 4 µM): 1.06 | relative viability (NCI-H1666; first compound 0.04 µM): 0.958 | relative viability (NCI-H1666; first compound 0.1265 µM): 0.93 | relative viability (NCI-H1666; first compound 0.4 µM): 0.829 | relative viability (NCI-H1666; first compound 1.265 µM): 0.963 | relative viability (NCI-H1666; first compound 4 µM): 0.845 | relative viability (HCC-15; first compound 0.04 µM): 0.719 | relative viability (HCC-15; first compound 0.1265 µM): 0.713 | relative viability (HCC-15; first compound 0.4 µM): 0.767 | relative viability (HCC-15; first compound 1.265 µM): 0.737 | relative viability (HCC-15; first compound 4 µM): 0.654 | relative viability (HCC-827; first compound 0.04 µM): 1.01 | relative viability (HCC-827; first compound 0.1265 µM): 0.982 | relative viability (HCC-827; first compound 0.4 µM): 1.06 | relative viability (HCC-827; first compound 1.265 µM): 0.994 | relative viability (HCC-827; first compound 4 µM): 0.97 | relative viability (COR-L23; first compound 0.04 µM): 1.1 | relative viability (COR-L23; first compound 0.1265 µM): 0.972 | relative viability (COR-L23; first compound 0.4 µM): 1.24 | relative viability (COR-L23; first compound 1.265 µM): 0.778 | relative viability (COR-L23; first compound 4 µM): 1.01 | relative viability (NCI-H1437; first compound 0.04 µM): 1.09 | relative viability (NCI-H1437; first compound 0.1265 µM): 1.09 | relative viability (NCI-H1437; first compound 0.4 µM): 1.12 | relative viability (NCI-H1437; first compound 1.265 µM): 1.13 | relative viability (NCI-H1437; first compound 4 µM): 1.15 | relative viability (COR-L 105; first compound 0.04 µM): 1.47 | relative viability (COR-L 105; first compound 0.1265 µM): 0.928 | relative viability (COR-L 105; first compound 0.4 µM): 0.692 | relative viability (COR-L 105; first compound 1.265 µM): 0.766 | relative viability (COR-L 105; first compound 4 µM): 0.715 | relative viability (NCI-H838; first compound 0.04 µM): 1.08 | relative viability (NCI-H838; first compound 0.1265 µM): 1.11 | relative viability (NCI-H838; first compound 0.4 µM): 1.19 | relative viability (NCI-H838; first compound 1.265 µM): 1.07 | relative viability (NCI-H838; first compound 4 µM): 1.18 | relative viability (NCI-H1792; first compound 0.04 µM): 0.648 | relative viability (NCI-H1792; first compound 0.1265 µM): 0.611 | relative viability (NCI-H1792; first compound 0.4 µM): 0.688 | relative viability (NCI-H1792; first compound 1.265 µM): 0.678 | relative viability (NCI-H1792; first compound 4 µM): 0.624 | relative viability (NCI-H441; first compound 0.04 µM): 0.886 | relative viability (NCI-H441; first compound 0.1265 µM): 0.685 | relative viability (NCI-H441; first compound 0.4 µM): 0.469 | relative viability (NCI-H441; first compound 1.265 µM): 0.755 | relative viability (NCI-H441; first compound 4 µM): 0.54 | relative viability (A-427; first compound 0.04 µM): 0.998 | relative viability (A-427; first compound 0.1265 µM): 0.92 | relative viability (A-427; first compound 0.4 µM): 0.867 | relative viability (A-427; first compound 1.265 µM): 0.794 | relative viability (A-427; first compound 4 µM): 0.98 | relative viability (NCI-H596; first compound 0.04 µM): 0.972 | relative viability (NCI-H596; first compound 0.1265 µM): 1 | relative viability (NCI-H596; first compound 0.4 µM): 1.08 | relative viability (NCI-H596; first compound 1.265 µM): 0.767 | relative viability (NCI-H596; first compound 4 µM): 0.986 | relative viability (NCI-H23; first compound 0.04 µM): 0.772 | relative viability (NCI-H23; first compound 0.1265 µM): 0.699 | relative viability (NCI-H23; first compound 0.4 µM): 0.841 | relative viability (NCI-H23; first compound 1.265 µM): 0.745 | relative viability (NCI-H23; first compound 4 µM): 0.825 | relative viability (EKVX; first compound 0.04 µM): 0.924 | relative viability (EKVX; first compound 0.1265 µM): 0.928 | relative viability (EKVX; first compound 0.4 µM): 1 | relative viability (EKVX; first compound 1.265 µM): 0.839 | relative viability (EKVX; first compound 4 µM): 0.891 | relative viability (NCI-H1975; first compound 0.04 µM): 1.09 | relative viability (NCI-H1975; first compound 0.1265 µM): 1 | relative viability (NCI-H1975; first compound 0.4 µM): 1.17 | relative viability (NCI-H1975; first compound 1.265 µM): 0.945 | relative viability (NCI-H1975; first compound 4 µM): 0.815
